Here are results for two compounds from patent publication US10570131B2, “Heterocyclic compounds and their use in preventing or treating bacterial infections” (MUTABILIS, priority 2015, dated 2020).

Holding throughout (assay type): cell-based
Assay [1] has as its system K. pneumoniae 6299. Description: MIC of ceftazidime alone and in combination with compounds (synergy), broth microdilution. Here is the method: (§1) Compounds of the present invention were assessed against genotyped bacterial strains alone or in combination with the β-lactam ceftazidime (CAZ). […] Briefly, compounds alone according to the invention were prepared in DMSO and spotted (2 μL each) on sterile polystyrene plates (Corning, 3788). […] Log phase bacterial suspensions were adjusted to a final density of 5×10^5 cfu/mL in cation-adjusted Mueller-Hinton broth (Becton-Dickinson) and added to each well (98 μL). Microplates were incubated for 16-20 h at 35° C. in ambient air. The MIC of the compounds was defined as the lowest concentration of said compounds that prevented bacterial growth as read by visual inspection.
(Broth dilution looks for growth in wells or tubes with falling amounts of substance.)

Assay [2] relates to P. aeruginosa UFR48. Described as above. To be noted: Pseudomonas aeruginosa, UFR48, read-out: MIC of CAZ. The procedure:
as §1

The subject of assay [3] is P. aeruginosa CIP105250. Description: microbe, parasite or virus in culture. Particulars: strain CIP105250 (OXA-15). Here is the method:
as §1

In assay [4] the test system is K. pneumoniae 6299. Description: microbe, parasite or virus in culture. Particulars: strain 6299 (TEM-1, SHV-11, OXA-163). The procedure: as §1
For assay [5], the system named is K. pneumoniae BAA-1898. Description: microbe, parasite or virus in culture. Particulars: strain BAA-1898 (TEM-1, SHV-11, SHV-12, KPC-2). Here is the method:
as §1

Assay [6] relates to E. coli 131119. In words: microbe, parasite or virus in culture. Particulars: strain 131119 (TEM-1, OXA-48). The procedure:
as §1

Assay [7] deals with P. aeruginosa CIP105250. In words: MIC of ceftazidime alone and in combination with compounds (synergy), broth microdilution. Particulars: MIC of ceftazidime with compound fixed at 4 μg/mL; strain CIP105250 (OXA-15). The procedure: as §1
In assay [8] the test system is K. pneumoniae BAA-1898. The description is as above. To be noted: MIC of ceftazidime with compound fixed at 4 μg/mL; strain BAA-1898 (TEM-1, SHV-11, SHV-12, KPC-2). Here is the method:
as §1

Assay [9] deals with P. aeruginosa CIP107051. Described as above. To be noted: MIC of ceftazidime with compound fixed at 4 μg/mL; strain CIP107051 (TEM-24). The procedure:
as §1

The subject of assay [10] is E. cloacae P99. The assay is described as above. To be noted: MIC of ceftazidime with compound fixed at 4 μg/mL; strain P99 (AmpC).
Assay [11] relates to E. coli 190317. Described as above. To be noted: MIC of ceftazidime with compound fixed at 4 μg/mL; strain 190317 (TEM-1, SHV-12, CTX-M-15, OXA-1).
For assay [12], the system named is C. murliniae 210102. Description: MIC of compounds alone, broth microdilution. To be noted: strain 210102 (VIM-4). The procedure:
as §1

The test system of assay [13] is E. coli UFR74. Description: MIC of compounds alone, broth microdilution. Particulars: strain UFR74 (SHV-1, DHA-1). The procedure:
as §1

For assay [14], the system named is K. pneumoniae UFR77. In words: MIC of compounds alone, broth microdilution. To be noted: strain UFR77 (CMY-2). Here is the method:
as §1

Assay [15] has as its system E. coli UFR32. In words: MIC of compounds alone, broth microdilution. To be noted: strain UFR32 (TEM-1, VEB-1, OXA-10). Here is the method: as §1
Assay [16] relates to E. coli 190317. In words: MIC of compounds alone, broth microdilution. To be noted: strain 190317 (TEM-1, SHV-12, CTX-M-15, OXA-1). Here is the method:
as §1

Assay [17] concerns E. coli RGN238. Description: MIC of compounds alone, broth microdilution. To be noted: strain RGN238 (OXA-1). Here is the method:
as §1

Assay [18] concerns E. coli UFR61O. In words: MIC of compounds alone, broth microdilution. Particulars: strain UFR61O (TEM-1, KPC-2). Here is the method:
as §1

The test system of assay [19] is K. pneumoniae 160143. In words: MIC of compounds alone, broth microdilution. Particulars: strain 160143 (TEM-1, SHV-1, CTX-M-15, KPC-2, OXA-1). The procedure:
as §1

The subject of assay [20] is P. aeruginosa CIP107051. In words: MIC of compounds alone, broth microdilution. To be noted: strain CIP107051 (TEM-24). Here is the method:
as §1

Assay [21] deals with K. pneumoniae UFR68. Description: MIC of compounds alone, broth microdilution. To be noted: strain UFR68 (TEM-1, SHV-11, CTX-M-15, KPC-3). Here is the method:
as §1

Assay [22] deals with K. pneumoniae UFR24. Description: MIC of compounds alone, broth microdilution. Particulars: strain UFR24 (TEM-1, SHV-2, SHV-11, OXA-1, OXA-48, OXA-47). Here is the method:
as §1

Assay [23] deals with K. pneumoniae 200047. Description: MIC of compounds alone, broth microdilution. Particulars: strain 200047 (TEM-1, SHV-32, CTX-M-15, OXA-1). Here is the method: as §1
The test system of assay [24] is K. oxytoca UFR21. Description: MIC of compounds alone, broth microdilution. To be noted: strain UFR21 (TEM-1, CTX-M-15, OXA-48). Here is the method: as §1
The subject of assay [25] is E. coli UFR52. In words: MIC of compounds alone, broth microdilution. To be noted: strain UFR52 (TEM-1, SHV-12, IMP-8). Here is the method:
as §1

The test system of assay [26] is E. cloacae UFR38. Description: MIC of compounds alone, broth microdilution. To be noted: strain UFR38 (CTX-M-15, NDM-1). The procedure:
as §1

The subject of assay [27] is E. cloacae UFR70. In words: MIC of compounds alone, broth microdilution. Particulars: strain UFR70 (TEM-1, CTX-M-15, CMY-2, OXA-1, Porin loss). Here is the method:
as §1

In assay [28] the test system is E. cloacae 260508. Description: MIC of compounds alone, broth microdilution. To be noted: strain 260508 (TEM-1, CTX-M-15). Here is the method:
as §1

The subject of assay [29] is E. cloacae UFR85. In words: MIC of compounds alone, broth microdilution. Particulars: strain UFR85 (TEM-1, CTX-M-15, derepressed AmpC). Here is the method:
as §1

The test system of assay [30] is E. cloacae P99. In words: MIC of compounds alone, broth microdilution. To be noted: strain P99 (AmpC). The procedure:
as §1

The subject of assay [31] is E. coli UFR18. Description: MIC of compounds alone, broth microdilution. To be noted: strain UFR18 (CTX-M-15, OXA-204). Here is the method:
as §1

Consider `CC(C)(O/N=C(\C(=O)N[C@@H]1C(=O)N2C(C(=O)[O-])=C(C[n+]3ccccc3)CS[C@H]12)c1csc(N)n1)C(=O)O` [CAZ, ceftazidime, reference compound], for which the MIC in [1] (Klebsiella pneumoniae, 6299, read-out: MIC of CAZ) amounted to 256 mg/L; in [2], 256 mg/L.
As to `NCCON=C1C[C@@H](C(N)=O)N2C[C@@H]1N(OS(=O)(=O)[O-])C2=O.O=C(O)C(F)(F)F.[Na+]` [Example 4, sodium and 2,2,2-trifluoroacetate [(2S, 5S)-4-(2-ammoniumethoxyimino)-2-carbamoyl-7-oxo-1,6-diazabicyclo[3.2.1]octan-6-yl] sulfate], the “MIC compounds of the invention alone” value in assay [3], in [4], in assay [5], in [6], in assay [12] and in [13] was above 32 mg/L in each case. In addition, the “MIC compounds of the invention alone” value in assay [14] was above 32 mg/L; in assay [15] it was 4 mg/L; in [16], 4 mg/L; in assay [17], above 32 mg/L; in [18], above 32 mg/L; in assay [19] it was above 32 mg/L. Further, the “MIC compounds of the invention alone” value in assay [20] is 32 mg/L; in assay [21] it was above 32 mg/L; in assay [22], above 32 mg/L; in assay [23], above 32 mg/L; in [24] it was above 32 mg/L; in assay [25], 8 mg/L. The “MIC compounds of the invention alone” value is 2 mg/L in assay [26]; above 32 mg/L in [27]; 16 mg/L in [28]; above 32 mg/L in assay [29]; 16 mg/L in assay [30]; 4 mg/L in [31]. In addition, the “MIC, combination of CAZ and compounds of the invention at 4 μg/mL” value in [7] is 8 mg/L; in assay [1] (MIC of ceftazidime with compound fixed at 4 μg/mL, strain 6299 (TEM-1, SHV-11, OXA-163)), 0.25 mg/L; in assay [8], at most 0.125 mg/L; in assay [9], 8 mg/L; in assay [10] it was 0.25 mg/L; in assay [11], below 0.25 mg/L.

One may read the MIC as the lowest concentration that inhibits growth of the organism.
